Results published in BindingDB's records for patent US20250108123 (Jacobio Pharmaceuticals, 2025).

Biological target: Stimulator of interferon genes protein (Homo sapiens, UniProt Q86WV6)
Test: Human STING WT Binding Assay
Method: Cisbio Bioassays' human STING WT binding assay (#64BDSTGPEG & 64BDSTGPEH, Cisbio) is for quantitative measurement of human STING WT ligand using HTRF technology.1. Adding CompoundsNegative control: Dispense 5 μL of diluent into each negative control well. Standard: Dispense 5 μL of each Human STING WT Standard 2′3′-cGAMP (Std 0-Std 7) into each standard well. Compound: Dispense 5 μL of compound into each compound well.2. Adding ProteinsNegative control: Add 5 μL of detection buffer to all wells. Other wells: Add 5 μL of human STING WT protein 6His-tagged protein to all wells.3. Adding AntibodiesAdd 10 μL of premixed STING WT ligand d2 reagent and 6His Tb antibody working solution to all wells.4. RT IncubationSeal the plate and incubate 3 hours at RT or at Over Night if necessary.5. Reading PlateRemove the plate sealer and read on an HTRF compatible reader (PerkinElmer, USA). Results were analyzed with a two-wavelength signal ratio: intensity (665 nm)/intensity (620 nm).6.

Stimulator of interferon genes protein, sequence (Q86WV6 whole entry): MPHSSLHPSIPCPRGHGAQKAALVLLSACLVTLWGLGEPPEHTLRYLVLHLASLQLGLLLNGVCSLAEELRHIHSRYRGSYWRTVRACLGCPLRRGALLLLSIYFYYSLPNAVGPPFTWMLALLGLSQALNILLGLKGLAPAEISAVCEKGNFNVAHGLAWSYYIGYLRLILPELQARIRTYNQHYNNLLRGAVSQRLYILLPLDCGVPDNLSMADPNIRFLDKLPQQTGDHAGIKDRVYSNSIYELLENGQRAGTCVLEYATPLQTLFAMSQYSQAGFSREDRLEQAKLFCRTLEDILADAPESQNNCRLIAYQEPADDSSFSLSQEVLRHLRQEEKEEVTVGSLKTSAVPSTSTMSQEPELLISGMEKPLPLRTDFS

## COC1C=C2CN(C(=O)CCC(=O)O)CC2=CC1OCCCOC1C=C2CN(C(=O)CCC(=O)O)CC2=CC1OC (stereo unspecified) [US20250108123, Example I-1]
  IC50: < 0.1 nM
